Reference: patent US20230184744A1, “INTERTUMORAL HOMOGENEITY DETERMINED BY MiCK ASSAY” (Pierian Biosciences, LLC, priority 2014, published 2023)
Like-named read-outs stand apart in the source and are kept apart here.

Legend:
[1] = test system: Lung adenocarcinoma (site B); assay: MiCK assay, drug-induced apoptosis, Table 4 tumor C2
Method: (§4) After overnight incubation, chemotherapy drugs were added to the wells of the 96-well plate in 5 μL aliquots or to the wells of a 384-well plate in 2.5 μL aliquots using an automated pipettor. The number of drugs or drug combinations and the number of concentrations tested depended on the number of viable malignant cells that were isolated from the tumor specimen. The drug concentrations, determined by molarity, were those indicated by the manufacturer as the desired blood level concentration plus or minus one serial dilution if enough cells were available.
(§5) Following drug addition, the plate was incubated for 30 min. at 37° C. in a 5% carbon dioxide humidified atmosphere incubator. Each well was then overlayed with sterile mineral oil, and the plate was placed into the incubator chamber of a microplate spectrophotometric reader. The optical density at 600 nanometers was read and recorded every 5 minutes over a period of 48 hours. Optical density increases, which correlates with apoptosis, were converted to kinetic units (KU) of apoptosis by a proprietary software ProApo with a formula described in the Kravtsov reference incorporated by reference (i.e. Kravtsov V. et al. “Use of the Microculture Kinetic Assay of apoptosis to determine chemosensitivities of leukemias.” Blood 1998; 92:968-980).
(§6) Purified tumor cells were cultured for 48 hours with individual drugs, and drug-induced apoptosis was measured using the MiCK assay as described in Example 1. Data were obtained optically using Mie light-scattering.

[2] = test system: Lung small cell carcinoma (site A); assay: MiCK assay, drug-induced apoptosis, Table 4 tumor C1
Method: as §4
(§7) Following drug addition, the plate was incubated for 30 min. at 37° C. in a 5% carbon dioxide humidified atmosphere incubator. Each well was then overlayed with sterile mineral oil, and the plate was placed into the incubator chamber of a microplate spectrophotometric reader. The optical density at 600 nanometers was read and recorded every 5 minutes over a period of 48 hours.
(§8) Patients: Three patients were included in this study. Two tumor samples from different tumor sites were collected from each patient. Both samples from each patient were collected on the same day.

[3] = test system: NSCLC, bilateral well-differentiated adenocarcinoma (site 1A); assay: MiCK assay, drug-induced apoptosis, Table 3 tumor B1; format: cell-based, human
Description: (§1) Data were obtained optically using Mie light-scattering.
(§2) Do a test well. […] Look at the well under the inverted microscope. […] Repeat until optimal cell concentration is found. Plate the cells into the wells.

[4] = test system: Pancreatic islet cell cancer (lymph node); assay: MiCK assay, drug-induced apoptosis, Table 4 tumor A1
Method: as §4, §7, §8

[5] = test system: NSCLC, multi-focal adenocarcinoma (site A); assay: MiCK assay, drug-induced apoptosis, Table 3 tumor E1; format: cell-based, human
Description: as §1, §2

[6] = test system: NSCLC, multi-focal, recurrent adenocarcinoma (site A); assay: MiCK assay, drug-induced apoptosis, Table 3 tumor C1; format: cell-based, human
Description: as §1, §2

[7] = test system: NSCLC, multi-focal, recurrent adenocarcinoma (right lung); assay: MiCK assay, drug-induced apoptosis, Table 3 tumor D1; format: cell-based, human
Description: as §1, §2

[8] = test system: NSCLC, multi-focal adenocarcinoma (site B); assay: MiCK assay, drug-induced apoptosis, Table 3 tumor E2; format: cell-based, human
Description: as §1, §2

[9] = test system: Lung adenocarcinoma (solid tumor); assay: MiCK assay, drug-induced apoptosis, Table 4 tumor B2; format: cell-based, human
Description: as §1
(§3) Patients: Three patients were included in this study. […] Patient A was diagnosed with pancreatic islet cell cancer; sample 1 was collected from lymph node and sample 2 was collected from the primary tumor. Patient B was diagnosed with lung cancer NSCLC adenocarcinoma; sample 1 was collected from pleural effusion and sample 2 was collected from solid tumor. […] Ages of the patients ranged from 51-79 years old with an average age of 65 years. One patient was […] and two were female.

[10] = test system: NSCLC, multi-focal, recurrent adenocarcinoma (site B); assay: MiCK assay, drug-induced apoptosis, Table 3 tumor C2; format: cell-based, human
Description: as §1, §2

[11] = test system: Lung adenocarcinoma (pleural effusion); assay: MiCK assay, drug-induced apoptosis, Table 4 tumor B1; format: cell-based, human
Description: as §1, §3

[12] = test system: NSCLC, multi-focal, recurrent adenocarcinoma (lymph node); assay: MiCK assay, drug-induced apoptosis, Table 3 tumor D2; format: cell-based, human
Description: as §1, §2

[13] = test system: Probable mesothelioma (pleural effusion); assay: MiCK assay, drug-induced apoptosis, Table 3 tumor A2; format: cell-based, human
Method: as §1
When the optimal cell concentration is reached, put the cells in the plate and incubate overnight in the incubating chamber of the incubator (37° C.).

[14] = test system: NSCLC, bilateral well-differentiated adenocarcinoma (site 1B); assay: MiCK assay, drug-induced apoptosis, Table 3 tumor B2; format: cell-based, human
Description: as §1, §2

[15] = test system: Pancreatic islet cell cancer (primary tumor); assay: MiCK assay, drug-induced apoptosis, Table 4 tumor A2; settings: 48 hours with drug
Method: as §4, §5, §6

[16] = Table 4 tumor C2: Lung adenocarcinoma (site B), 48 hours with drug
[17] = Table 4 tumor C1: Lung small cell carcinoma (site A), 48 hours with drug
[18] = Table 3 tumor B1: NSCLC, bilateral well-differentiated adenocarcinoma (site 1A), 48 hours with drug
[19] = Table 4 tumor A1: Pancreatic islet cell cancer (lymph node), 48 hours with drug
[20] = Table 3 tumor E1: NSCLC, multi-focal adenocarcinoma (site A), 48 hours with drug
[21] = Table 3 tumor C1: NSCLC, multi-focal, recurrent adenocarcinoma (site A), 48 hours with drug
[22] = Table 3 tumor D1: NSCLC, multi-focal, recurrent adenocarcinoma (right lung), 48 hours with drug
[23] = Table 3 tumor E2: NSCLC, multi-focal adenocarcinoma (site B), 48 hours with drug
[24] = Table 4 tumor B2: Lung adenocarcinoma (solid tumor), 48 hours with drug
[25] = Table 3 tumor C2: NSCLC, multi-focal, recurrent adenocarcinoma (site B), 48 hours with drug
[26] = Table 4 tumor B1: Lung adenocarcinoma (pleural effusion), 48 hours with drug
[27] = Table 3 tumor D2: NSCLC, multi-focal, recurrent adenocarcinoma (lymph node), 48 hours with drug
[28] = Table 3 tumor A2: Probable mesothelioma (pleural effusion), 48 hours with drug
[29] = Table 3 tumor B2: NSCLC, bilateral well-differentiated adenocarcinoma (site 1B), 48 hours with drug

SMILES	kinetic units (KU) of apoptosis [1, 16] [KU]	kinetic units (KU) of apoptosis [2, 17] [KU]	kinetic units (KU) of apoptosis [3, 18] [KU]	kinetic units (KU) of apoptosis [4, 19] [KU]	kinetic units (KU) of apoptosis [5, 20] [KU]	kinetic units (KU) of apoptosis [6, 21] [KU]	kinetic units (KU) of apoptosis [7, 22] [KU]	kinetic units (KU) of apoptosis [8, 23] [KU]	kinetic units (KU) of apoptosis [9, 24] [KU]	kinetic units (KU) of apoptosis [10, 25] [KU]	kinetic units (KU) of apoptosis [15] [KU]	kinetic units (KU) of apoptosis [11, 26] [KU]	kinetic units (KU) of apoptosis [12, 27] [KU]	kinetic units (KU) of apoptosis [13, 28] [KU]	kinetic units (KU) of apoptosis [14, 29] [KU]	also measured
O=P1(N(CCCl)CCCl)NCCCO1 (centres unmarked) [4HC (Cytoxan), Cytoxan]																kinetic units (KU) of apoptosis [1]: 2.40 KU; kinetic units (KU) of apoptosis [2]: 1.80 KU; kinetic units (KU) of apoptosis [3]: 1.10 KU; kinetic units (KU) of apoptosis [4]: 3.00 KU; kinetic units (KU) of apoptosis [5]: 0.50 KU; kinetic units (KU) of apoptosis [6]: 0.60 KU; kinetic units (KU) of apoptosis [7]: 1.20 KU; kinetic units (KU) of apoptosis [8]: 0.30 KU; kinetic units (KU) of apoptosis [9]: 2.40 KU; kinetic units (KU) of apoptosis [10]: 0.00 KU; kinetic units (KU) of apoptosis [11]: 1.20 KU; kinetic units (KU) of apoptosis [12]: 1.20 KU; kinetic units (KU) of apoptosis [13]: 3.10 KU; kinetic units (KU) of apoptosis [14]: 1.20 KU
N.N.O=C([O-])C1(C(=O)[O-])CCC1.[Pt+2] [Carboplatin]	2.60	5.30	1.90	1.08	0.30	0.40	1.00	0.30	2.40	1.20	1.48	1.20	0.80	1.50	2.20	
N.N.[Cl][Pt][Cl] [Cisplatin]	5.40	6.40	1.50	1.31	0.80	0.00	1.00	0.50	2.20	2.10	1.75	2.20	1.00	2.80	2.10	
COc1cccc2c1C(=O)c1c(O)c3c(c(O)c1C2=O)C[C@@](O)(C(=O)CO)C[C@@H]3O[C@H]1C[C@H](N)[C@@H](O)[C@H](C)O1 [Epirubicin]	3.20	8.70	0.90	1.61			1.40		3.50			2.70		3.80	1.20	
COc1cc([C@@H]2c3cc4c(cc3[C@@H](O[C@@H]3O[C@@H]5CO[C@@H](C)O[C@H]5[C@H](O)[C@H]3O)[C@H]3COC(=O)[C@H]23)OCO4)cc(OC)c1O [Etoposide]		4.60	1.10	1.08	0.40	0.80	1.60				0.00	2.30	0.90	1.20	1.20	
Nc1ccn([C@@H]2O[C@H](CO)[C@@H](O)C2(F)F)c(=O)n1 [Gemcitabine]	1.30	2.20	1.20	1.08	0.30	0.00	0.10	0.50	3.20	0.70		1.10	0.90	0.70	1.10	
CCc1c2c(nc3ccc(OC(=O)N4CCC(N5CCCCC5)CC4)cc13)-c1cc3c(c(=O)n1C2)COC(=O)[C@]3(O)CC [Irinotecan]	2.10	1.40	1.60	1.50	0.60	0.40	0.40	0.10		0.30	1.16	0.60	0.90	1.30	1.50	
CN(Cc1cnc2nc(N)nc(N)c2n1)c1ccc(C(=O)N[C@@H](CCC(=O)O)C(=O)O)cc1 [Methotrexate]	0.60	1.30	1.00	0.66					1.30			1.40		0.50		
O=C1[O][Pt]2([NH][C@@H]3CCCC[C@H]3[NH]2)[O]C1=O [Oxaliplatin]	2.50	4.40		1.08					3.10			3.00				
CC[C@@]1(O)C(=O)OCc2c1cc1n(c2=O)Cc2cc3c(CN(C)C)c(O)ccc3nc2-1 [Topotecan]	4.10	9.30	1.70		0.70	0.50	0.40	0.30		0.00		1.30	1.00	3.60	0.80	
CC[C@]1(O)C[C@H]2CN(CCc3c([nH]c4ccccc34)[C@@](C(=O)OC)(c3cc4c(cc3OC)N(C=O)[C@H]3[C@@](O)(C(=O)OC)[C@H](OC(C)=O)[C@]5(CC)C=CCN6CC[C@]43[C@@H]65)C2)C1 [Vincristine]	1.60	1.00	1.30	0.82	0.10	0.00	0.40	0.10		0.40		0.90	0.90	2.80	1.50	
CCC1=C[C@@H]2CN(C1)Cc1c([nH]c3ccccc13)[C@@](C(=O)OC)(c1cc3c(cc1OC)N(C)[C@H]1[C@@](O)(C(=O)OC)[C@H](OC(C)=O)[C@]4(CC)C=CCN5CC[C@]31[C@@H]54)C2 [Vinorelbine]	2.50	3.50	1.20	1.18	0.40	0.20	0.40	0.00	2.70	0.00		3.90	1.00	2.10	1.70	
